Measurements from US9604931B2, “Nuclear receptor binding agents” (GTx, Inc., priority 2007, dated 2017).

What was measured:
ER-α = ER-α (Rattus norvegicus (Rat), UniProt P06211); format: cell-based
Protocol: COS or 293 cells were plated in DME without phenol red+10% cs FBS at 90,000 cells per well in 24 well plates, and were transfected with 0.25 μg of the vector “ERE-LUC”, where a firefly luciferase gene was driven by two estrogen responsive elements and 0.02 μg of the control CMV-LUC, Renilla where a luciferase gene was driven by a CMV promoter. […] All the receptors were cloned from rat tissue into the PCR3.1 vector backbone. Twenty four hours post transfection, cells were treated with compounds of this invention, estrogen, DHT, and other NRBAs or combinations thereof. Cells were harvested 48 hrs after transfection, and assayed for firefly and Renilla luciferase activity.

ARPE-19 cells = test: Fluorescent detection of intracellular ROS; format: cell-based, Human; details: 150 μM tBH
Excerpt: Cells were allowed to adhere overnight. […] Removed and washed cells once with HBSS. […] Each drug concentration was done in triplicates.

[1] = tested on: LPS induced THP-1 macrophage cell adhesion to bEND-3 endothelial cells; test: Macrophage adhesion assay; format: cell-based
Protocol: To determine the anti-inflammatory effects of ER-β NRBAs in vitro, a macrophage adhesion assay was performed. Macrophages adhere to endothelial cells due to elevated levels of pro-inflammatory cytokines. This principle was used in this assay to determine the effect of one of the ER-NRBAs on bacterial lipopolysaccharide (LPS) induced THP-1 macrophage cell adhesion to bEND-3 endothelial cells.

[2] = molecular target: ERα ligand binding domain (Homo sapiens, UniProt P03372); test: Competitive [3H]-estradiol binding assay, ER-α (Example 21); details: 100 nM of compound; read-out: Percent Inhibition of [3H]-Estradiol Binding to ER-α
Protocol: (§1) ER binding affinity was determined via one of the following methods:
(§2) Briefly, the incubation mixture was filtered through a high affinity protein binding filter, and washed several times to remove any unbound radioactivity. The filter plate was air dried and sealed on the bottom.
(§3) Nonspecific binding was subtracted from total binding to yield specific binding.

[3] = molecular target: ERβ ligand binding domain (Homo sapiens, UniProt Q92731); test: Competitive [3H]-estradiol binding assay, ER-β (Example 21)
Protocol: as §1, §2, §3

rat aorta rings = test: Rat aortic ring relaxation; details: 10^-6 PE constriction
Excerpt: Experimental protocol. Equipment used in these studies included a 4-tissue bath system with reservoirs and circulators (RadnotiGlass Technology, Monrovia, Calif.), DSI/Ponemah tissue force analyzer 7700 (Valley View, Ohio), and iWorx/CB Sciencesforce transducers FT-302. The 250 g rats were anesthetized with isoflurane to produce deep anesthesia. The chest of the rat was opened, and about 3 cm length of aorta was removed and placed in a Petri dish containing room temperature Krebs salt solution (KSS, in mM: 120 NaCl, 5 KCl, 1.2 MgSO4.7H20, 2.5 CaCl2.2H2O, 1 KH2PO4, 25 NaHCO3, and 11 glucose). Fat and connective tissue were removed from the aorta taking care not to stretch the vessel. The aorta was then divided into 3-mm-wide rings. Triangular wire holders were inserted through the lumen of the vessel and connected to the force transducer and tissue holder rod in the vessel bath.
Analog-to-digital conversions of force waveforms were accomplished with a DSI/Ponemah tissue force analyzer 7700. The converted data were automatically analyzed with Ponemah Physiology-Smooth Muscle software. All data are summarized as means±standard error. Differences between means were assessed by a conventional ANOVA. This was followed by Student's test. P<0.05 was considered to be statistically significant.
The tension on the rings was adjusted to 1.0 g passive force using the tension adjustment dial for each transducer and allowed to equilibrate for 60 min in the bath with a 95% O2-5% CO2 gas mixture. The rings were washed with fresh buffer every 20 min. Passive force was readjusted to 1.0 g as needed during this period. When rings were stable at 1.0 g of passive force, the baseline was calculated.
Phenylephrine (PE) at a final concentration of […] was added to the bath to contract the ring, and force was allowed to stabilize for 10 min. Then acetylcholine (ACH) at a final concentration of 10^−5 M was added to the precontracted rings to test for endothelial integrity […]. After the initial test for vessel viability and endothelial integrity, the rings were washed three times for 10 min with buffer, allowing it to equilibrate to active force stabilized at 1 g.
Cumulative concentration-response curves to NRBAs were created by increasing the NRBAs concentration in the tissue bath by successive addition of appropriate dilutions of stock solutions to achieve final bath concentrations of 300 nM to 0.15 mM NRBAs.
Table 10 summarizes EC50 values and maximal % decrease of the 10^−6 PE constriction of the aortic ring for individual NRBAs tested

ER-β = ER-β (Rattus norvegicus (Rat), UniProt Q62986); test: ER-β transactivation (ERE-LUC) in COS or 293 cells; format: cell-based
[4] = tested on: Ang II induced cardiac fibrosis; test: Angiotensin II model, cardiac fibrosis; format: in vivo, ovariectomized C57/BJ6 and ERβKO mice
Protocol: (§4) Thirty, ten week old female ovariectomized C57/BJ6 mice, were obtained from Harlan/Sprague Dawley and were housed in 12 hour on/off lighting and fed rodent chow devoid of soy or most plant products. Ovariectomized ERβKO mice were obtained from Ken Korach, NIEHS. The ERβ mice were originally created by Drs. Smithies, Gustafsson, and colleagues. All mice were identically housed and fed the same chow.
(§5) This pellet is well documented to produce physiological levels of E2 in the serum of mice.
Left ventricular tissues were fixed in 4% paraformaldehyde solution. Paraffin-embedded tissue sections (5 um) were stained with Masson's trichrome for the presence of interstitial collagen fiber accumulation indicative of cardiac fibrosis. The ratio of interstitial fibrosis to the total left ventricular area was calculated from 10 randomly selected microscopic fields from each of five sections per heart using NIH imageJ analysis software (n=5 mice per condition). Further quantification of collagen deposition was made by ventricular content of hydroxyproline, a breakdown product of collagen, determined by a modified method of Bergman and Loxley (19). The ventricular tissues were homogenized and hydrolyzed in 6 N HCl at 110° C. for 24 h in a sealed reaction vial. The sample was dried and the residue re-suspended in sterile water. 0.5 ml of chloramine T was added for 5 min, then Ehrlich's reagent (3 ml) was added and the mixture left for 18 h at room temperature. The intensity of the red coloration that developed was measured by a spectrophotometer at 558 nm.

[5] = tested on: Rat Aortic Smooth Muscle Cells (RASMC); test: RASMC cell proliferation assay (WST-1); format: cell-based; details: Rattus norvegicus, read-out: EC50 for inhibition of RASMC proliferation
Protocol: EC50 values were calculated using WinNonLin 5.0.1 using the inhibitory effect sigmoid Emax model.

[6] = tested on: Ang II induced hypertension; test: Angiotensin II model, blood pressure; format: in vivo, ovariectomized C57/BJ6 and ERβKO mice; design: Systolic pressure / Diastolic pressure: unit: mmHg; details: for Diastolic pressure / Systolic pressure: Ang II
Protocol: as §4, with “ERβ gene-deleted (ERβKO or ERβ-KO)” for “ERβKO”
as §5
Blood pressure was measured 4 times during the 21-day period, using the CODA non-invasive blood pressure measuring system (Kent Scientific, Torrington, Conn.). Measurements were done by volume pressure recordings of the tail.

[7] = tested on: Ang II induced left ventricular hypertrophy; test: Angiotensin II model, cardiac hypertrophy; format: in vivo, ovariectomized C57/BJ6 and ERβKO mice; details: 21 days
Protocol: as §4, §5
At inception and after 21 days, the mice were weighed. Blood pressure was measured 4 times during the 21-day period, using the CODA non-invasive blood pressure measuring system. At 21 days the hearts were stopped in diastole by CdCl2 administration. The hearts were removed and weighed and the ratio of heart per total body weight was determined. Next, the hearts were dissected and the left ventricles were weighed and the ratio of left ventricle per total body weight was determined. […] For comparison ERβ gene-deleted mice were subjected to the same conditions of Ang II±E2 or the 12u compound. For histology, the hearts were and sectioned, and stained with hematoxylin and eosin, or Masson stain (for collagen)

SHP promoter = test: SHP promoter-luciferase assay in HEK-293 cells; format: cell-based
Protocol: FIG. 12 depicts the effect of ER-β ligand on PPAR-γ function through ligand binding domain (LBD). (A). HEK-293 cells were transfected with 0.25 μg PPRE-LUC, 5 ng CMV-renilla LUC and the indicated receptors (PPAR-γ and ER-β for the left panel and PPAR-α and ER-β for the right panel). The cells were treated 24 hrs after transfection with the indicated ligands and harvested 48 hrs after transfection and firefly luciferase activity was measured and normalized to renilla luciferase. (B). H475 in ER-β LBD is important for its function. H475 in ER-β LBD was mutated to alanine (A) using a site directed mutagenesis kit. Transactivation assay was performed as described in panel A in HEK-293 cells with a titration of ER-β ligands in wild type (WT) or ER-β H475A. (C). […] HEK-293 cells were transfected with 0.25 μg PPRE-LUC, 5 ng CMV-renilla LUC and 50 ng of the indicated receptors (PPAR-γ or PPAR-γ and wild type ER-β or PPAR-γ and ER-β H475A). The cells were treated 24 hrs after transfection with the indicated ligands and harvested 48 hrs after transfection and firefly luciferase activity was measured and normalized to renilla luciferase. (D). […] HepG2 cells were transfected with 0.25 μg PPRE-LUC, 5 ng CMV-renilla LUC, 0.5 μg PGC-1 or vector backbone and 100 ng of the indicated receptors (PPAR-γ or PPAR-γ and wild type ER-β or PPAR-γ and ER-β H475A for top panels and PPAR-α or PPAR-α and ER-β for bottom panel). The cells were treated 24 hrs after transfection with the indicated ligands and harvested 48 hrs after transfection and firefly luciferase activity was measured and normalized to renilla luciferase. (E). SHP-1 is an ER-β specific target gene. HEK-293 cells were transfected with 0.25 μg SHP-LUC, 5 ng CMV-renilla LUC and 50 ng of the indicated receptors (FXR and ER-α for the left panel and FXR and ER-β for the right panel). The cells were treated 24 hrs after transfection with the indicated ligands and harvested 48 hrs after transfection and firefly luciferase activity was measured and normalized to renilla luciferase. PPAR—peroxisome proliferator and activated receptor; ER—estrogen receptor; H—histidine; A—alanine; RLU—relative luciferase units; Tro—troglitazone; PGC-1—PPAR-γ coactivator; SHP—small heterodimer partner; FXR—farsenoid X receptor.
Human estrogen receptors (ER-α and ER-β) were cloned from prostate cDNA into a pCR3.1 plasmid vector backbone. PGC-1 was cloned into mammalian two hybrid vector pACT. ER-β H475 was mutated to alanine using site-directed mutagenesis. Sequencing was performed to determine the absence of any non specific mutations. SHP promoter (−572 to +10) (26) was cloned into pGL3 basic LUC reporter vector and human FXR was cloned into pCR3.1. […]

ER-β, sequence (Q62986 whole entry): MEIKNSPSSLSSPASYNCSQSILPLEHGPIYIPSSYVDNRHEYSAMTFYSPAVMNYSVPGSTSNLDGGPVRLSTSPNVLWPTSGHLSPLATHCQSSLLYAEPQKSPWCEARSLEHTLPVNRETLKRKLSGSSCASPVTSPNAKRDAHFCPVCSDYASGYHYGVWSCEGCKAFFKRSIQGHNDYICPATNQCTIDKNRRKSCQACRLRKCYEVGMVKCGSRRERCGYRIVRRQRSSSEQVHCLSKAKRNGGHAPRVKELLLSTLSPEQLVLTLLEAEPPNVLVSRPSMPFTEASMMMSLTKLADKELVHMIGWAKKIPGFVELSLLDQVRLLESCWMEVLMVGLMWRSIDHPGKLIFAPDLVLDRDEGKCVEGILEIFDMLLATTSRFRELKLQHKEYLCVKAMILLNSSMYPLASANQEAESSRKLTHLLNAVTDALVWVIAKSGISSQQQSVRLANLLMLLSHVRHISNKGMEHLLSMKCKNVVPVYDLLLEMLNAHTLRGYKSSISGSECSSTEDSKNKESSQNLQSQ
ERβ ligand binding domain, sequence (Q92731 whole entry, looked up, the tested form may be a part): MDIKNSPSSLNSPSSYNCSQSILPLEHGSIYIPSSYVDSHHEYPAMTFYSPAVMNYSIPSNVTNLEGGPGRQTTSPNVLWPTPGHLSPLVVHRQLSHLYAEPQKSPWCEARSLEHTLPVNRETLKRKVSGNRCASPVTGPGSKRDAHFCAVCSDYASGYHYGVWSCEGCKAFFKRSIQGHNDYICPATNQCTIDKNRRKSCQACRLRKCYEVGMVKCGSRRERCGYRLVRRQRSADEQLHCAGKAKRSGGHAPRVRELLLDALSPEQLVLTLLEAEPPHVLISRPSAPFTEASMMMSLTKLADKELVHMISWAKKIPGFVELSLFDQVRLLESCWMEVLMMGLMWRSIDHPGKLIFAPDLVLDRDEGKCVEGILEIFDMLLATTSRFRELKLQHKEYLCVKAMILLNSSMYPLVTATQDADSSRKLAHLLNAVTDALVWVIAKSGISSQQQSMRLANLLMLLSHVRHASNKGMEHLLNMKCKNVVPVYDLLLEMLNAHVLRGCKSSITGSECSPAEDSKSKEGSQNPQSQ
ERα ligand binding domain, sequence (P03372 whole entry, looked up, the tested form may be a part): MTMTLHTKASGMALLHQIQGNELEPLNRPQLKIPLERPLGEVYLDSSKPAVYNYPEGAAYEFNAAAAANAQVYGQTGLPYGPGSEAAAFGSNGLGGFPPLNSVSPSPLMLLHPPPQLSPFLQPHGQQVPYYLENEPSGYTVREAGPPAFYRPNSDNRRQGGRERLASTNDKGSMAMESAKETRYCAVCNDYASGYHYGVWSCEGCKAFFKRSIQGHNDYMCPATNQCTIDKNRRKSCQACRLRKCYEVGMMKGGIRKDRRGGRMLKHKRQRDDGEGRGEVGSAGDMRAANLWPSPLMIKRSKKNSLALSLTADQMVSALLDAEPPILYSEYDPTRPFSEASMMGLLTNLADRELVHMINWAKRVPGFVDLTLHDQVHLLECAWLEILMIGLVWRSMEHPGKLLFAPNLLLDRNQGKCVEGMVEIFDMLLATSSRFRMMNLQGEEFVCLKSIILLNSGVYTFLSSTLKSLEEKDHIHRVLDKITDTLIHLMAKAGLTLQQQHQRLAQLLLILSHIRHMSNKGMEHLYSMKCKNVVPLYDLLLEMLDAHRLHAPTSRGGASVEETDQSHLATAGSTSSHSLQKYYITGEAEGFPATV

O=c1c2c(O)cc(O)cc2c(Cl)cn1-c1ccc(O)cc1 [12y, 4-chloro-6,8-dihydroxy-2-(4-hydroxyphenyl)isoquinolin-1(2H)-one]
Classification as ER-α agonist (ER-α): ER-α agonists
Inhibition of ROS formation (ARPE-19 cells): more than 50%
Prevention of ROS formation / oxidative stress (ARPE-19 cells): protected ARPE-19 cells from oxidative damage
Adhesion of 3H labeled THP-1 cells to bEND-3 cells [1]: significantly inhibited
inhibition at 0.1 µM [2]: 51.9%
Ki Ratio (ER-α/ER-β) [3]: 11
inhibition at 0.1 µM ([3]; read-out: Percent Inhibition of [3H]-Estradiol Binding to ER-β): 97.5%
Mean of Maximal % Decrease of the PE constriction of the aortic ring (rat aorta rings): 80.63%
EC50 (rat aorta rings; Rattus norvegicus): 13.2 µM
ER-β agonist activity (ER-β): ER-β agonist activity

C[C@]12CC[C@@H]3c4ccc(O)cc4CC[C@H]3[C@@H]1CC[C@@H]2O [Estradiol, reference compound]
Reduction in ROS formation (ARPE-19 cells; 100 nM): approximately 30%
Ventricular hydroxyproline content ([4]; WT mice, not ERβKO): significantly inhibited the hydroxyproline content
Ang II induced cardiac fibrosis (interstitial collagen) ([4]; only in WT mice): significantly inhibited fibrosis
EC50 [5]: 36.4 µM
ER-β RLU/RenRLU (ER-β; dose 1 nM): 0.48 RLU/RenRLU
Ang II induced hypertension, diastolic pressure ([6]; ERβ-KO mice, 21 days): unchanged
Ang II induced hypertension, systolic pressure ([6]; ERβ-KO mice, 21 days): mildly reduced
Diastolic pressure ([6]; ERβKO, 7 days): 95
Systolic pressure ([6]; ERβKO, 7 days): 149
Diastolic pressure ([6]; ERβKO, 14 days): 98
Systolic pressure ([6]; ERβKO, 14 days): 143
Diastolic pressure ([6]; ERβKO, 21 days): 96
Systolic pressure ([6]; ERβKO, 21 days): 145
Diastolic pressure ([6]; ERβKO, time 0): 86
Systolic pressure ([6]; ERβKO, time 0): 126
Diastolic pressure ([6]; WT, 7 days): 82
Systolic pressure ([6]; WT, 7 days): 121
Diastolic pressure ([6]; WT, 14 days): 86
Systolic pressure ([6]; WT, 14 days): 124
Diastolic pressure ([6]; WT, 21 days): 88
Systolic pressure ([6]; WT, 21 days): 131
Diastolic pressure ([6]; WT, time 0): 85
Systolic pressure ([6]; WT, time 0): 123
Ang II induced hypertension ([6]; wildtype mice, 21 days): largely prevented
Ang II induced increase in heart size and total heart weight [7]: prevented the increased size
Ang II induced left ventricular hypertrophy (LVW/BW) ([7]; wildtype but not ERβKO mice): largely prevented

CC(C)c1onc(-c2c(Cl)cccc2Cl)c1COc1ccc(/C=C/c2cccc(C(=O)O)c2)c(Cl)c1 [GW4064, reference compound]
SHP promoter activity (SHP promoter; transfected with FXR and ER-β): increased its activity significantly

CCCc1c(-c2ccc(O)cc2)nn(-c2ccc(O)cc2)c1-c1ccc(O)cc1 [PPT, 1,3,5-tris(4-hydroxyphenyl)-4-propyl-1H-pyrazole, reference compound]
SHP promoter activity (SHP promoter; transfected with FXR and ER-α): increased SHP activity
